In brackets after ≈: the same amount, converted by molar mass. Several values for one entry are separate records, joined by “and”; a condition that tells them apart may be missing. Equal entries are not always repeated. Where two headings read alike, the source gives them in different places.
Assays:
[1] = test system: herpes simplex virus type 2 (HSV-2), strain E194; experiment: HSV-2 vaginitis in mice; format: in vivo, Swiss Webster female mice
Adenovirus type 5 = experiment: CPE assay, adenovirus in DU 145 cells; format: cell-based; conditions: 0.3125-10 mg/ml, FIG. 15A
Method: Adenovirus type 5 was obtained from the ATCC. DU 145 cells were obtained from the American Type Culture Collection. Cells were infected with virus and cyclocreatine was assayed for antiviral activity using the cytopathic effect (CPE) assay essentially as described in Example 1.

[2] = Cytotoxicity in plaque reduction assay, MRC-5 cells; format: cell-based, human; conditions: human, mrc-5 cells, read-out: CD50 (the source's name)
Method: (§1) Cytotoxicity was determined by examination of cells (located away from plaques) in infected wells which had been treated with drug.

MRC-5 cells = experiment: as above; format: cell-based, human; conditions: HCMV experiments, 8 days of exposure
Method: as §1

[3] = Cytotoxicity in plaque reduction assay, Hs68 cells; format: cell-based; conditions: human, Table 5, read-out: CD50 (the source's name)
Method: as §1

[4] = test system: Varicella-Zoster Virus, strain Oka; experiment: microbe, parasite or virus in culture; format: cell-based; set-up: TI50 (CD50 ÷ ED50): unit not given beside the values
creatine kinase = creatine kinase (Oryctolagus cuniculus, UniProt P00563); conditions: cited from earlier work
Sequence of creatine kinase (P00563 whole entry): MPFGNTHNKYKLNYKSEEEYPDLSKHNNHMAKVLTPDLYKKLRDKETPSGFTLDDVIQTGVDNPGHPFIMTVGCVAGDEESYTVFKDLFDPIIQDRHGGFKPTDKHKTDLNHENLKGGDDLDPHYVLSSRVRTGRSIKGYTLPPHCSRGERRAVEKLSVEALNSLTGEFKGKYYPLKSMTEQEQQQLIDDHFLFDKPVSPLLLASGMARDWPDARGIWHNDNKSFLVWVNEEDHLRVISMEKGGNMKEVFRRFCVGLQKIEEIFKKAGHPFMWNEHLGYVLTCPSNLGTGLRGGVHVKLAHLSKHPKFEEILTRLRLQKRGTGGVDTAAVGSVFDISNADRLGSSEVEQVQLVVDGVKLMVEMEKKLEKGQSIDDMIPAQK

in vitro [5] = conditions: monkey, vero cells
in vitro [6] = conditions: guinea pig, gpe cells
in vitro [7] = conditions: monkey, vero cells; remark: listed apart in the source
[8] = newly hatched chicks, 1% in diet, with antibiotics; cited from earlier work
DU 145 cells = experiment: Drug cytotoxicity in CPE assay, DU 145 cells; conditions: 10 mg/ml, 0 PFUs
[9] = Dietary feeding of cyclocreatine, tolerance and uptake; conditions: mice, up to 1% of diet for 2 weeks or over 4 weeks
[10] = Human alphaherpesvirus 3, CV-1, read-out: % Reduction
[11] = Human alphaherpesvirus 3, MRC5, read-out: % Reduction

SMILES: NC1=NCCN1CC(=O)O [cyclocreatine, 1-carboxymethyl-2-iminoimidazolidine]
- antiviral effect in vaginitis model ([1]; 1% dietary): comparable to that achieved by acyclovir at 200 mg/kg, 100 mg/kg or 50 mg/kg
- average lesion score ([1]; 1% in chow, Grand Ave. (Days 3-14)): 0.8 ± 0.2
- average lesion score ([1]; 1% in chow, day 3): 0.2 ± 0.2
- average lesion score ([1]; 1% in chow, day 4): 0.5 ± 0.7
- average lesion score ([1]; 1% in chow, day 5): 0.9 ± 1.3
- average lesion score ([1]; 1% in chow, day 6): 0.9 ± 1.3
- average lesion score ([1]; 1% in chow, day 7): 0.8 ± 1.4
- average lesion score ([1]; 1% in chow, day 8): 0.8 ± 1.4
- average lesion score ([1]; 1% in chow, day 9): 1.0 ± 1.3
- average lesion score ([1]; 1% in chow, day 10): 1.1 ± 1.3
- average lesion score ([1]; 1% in chow, day 11): 1.0 ± 1.3
- average lesion score ([1]; 1% in chow, day 12): 0.9 ± 1.3
- average lesion score ([1]; 1% in chow, day 13): 0.9 ± 1.4
- average lesion score ([1]; 1% in chow, day 14): 0.7 ± 1.4
- activity in vaginitis model ([1]; 5% and […] cream topical): inactive
- average lesion score ([1]; 5% cream topical, Grand Ave. (Days 3-14)): 2.3 ± 1.1
- average lesion score ([1]; 5% cream topical, day 3): 0.3 ± 0.3
- average lesion score ([1]; 5% cream topical, day 4): 0.4 ± 0.4
- average lesion score ([1]; 5% cream topical, day 5): 1.5 ± 1.1
- average lesion score ([1]; 5% cream topical, day 6): 2.1 ± 1.6
- average lesion score ([1]; 5% cream topical, day 7): 2.0 ± 1.3
- average lesion score ([1]; 5% cream topical, day 8): 2.8 ± 1.8
- average lesion score ([1]; 5% cream topical, day 9): 3.2 ± 1.6
- average lesion score ([1]; 5% cream topical, day 10): 3.2 ± 1.5
- average lesion score ([1]; 5% cream topical, day 11): 3.1 ± 1.5
- average lesion score ([1]; 5% cream topical, day 12): 3.0 ± 1.5
- average lesion score ([1]; 5% cream topical, day 13): 3.0 ± 1.5
- average lesion score ([1]; 5% cream topical, day 14): 3.0 ± 1.5
- survival ([1]; 10% cream topical (16% in the placebo group)): 40%
- effect on average lesion score ([1]; 10% cream topical, FIG. 10): slightly reduces the average lesion score
- average lesion score ([1]; 10% cream topical, Grand Ave. (Days 3-14)): 1.6 ± 0.8
- average lesion score ([1]; 10% cream topical, day 3): 0.2 ± 0.2
- average lesion score ([1]; 10% cream topical, day 4): 0.1 ± 0.2
- average lesion score ([1]; 10% cream topical, day 5): 0.9 ± 1.2
- average lesion score ([1]; 10% cream topical, day 6): 1.4 ± 1.9
- average lesion score ([1]; 10% cream topical, day 7): 1.6 ± 1.9
- average lesion score ([1]; 10% cream topical, day 8): 2.0 ± 2.0
- average lesion score ([1]; 10% cream topical, day 9): 2.2 ± 1.9
- average lesion score ([1]; 10% cream topical, day 10): 2.2 ± 1.9
- average lesion score ([1]; 10% cream topical, day 11): 2.1 ± 1.9
- average lesion score ([1]; 10% cream topical, day 12): 2.0 ± 1.9
- average lesion score ([1]; 10% cream topical, day 13): 2.0 ± 1.9
- average lesion score ([1]; 10% cream topical, day 14): 2.0 ± 1.9
- average lesion score ([1]; […] cream topical, Grand Ave. (Days 3-14)): 2.0 ± 0.9
- average lesion score ([1]; […] cream topical, day 3): 0.2 ± 0.2
- average lesion score ([1]; […] cream topical, day 4): 0.4 ± 0.6
- average lesion score ([1]; […] cream topical, day 5): 1.2 ± 1.3
- average lesion score ([1]; […] cream topical, day 6): 1.8 ± 1.8
- average lesion score ([1]; […] cream topical, day 7): 2.2 ± 1.8
- average lesion score ([1]; […] cream topical, day 8): 2.7 ± 1.7
- average lesion score ([1]; […] cream topical, day 9): 2.4 ± 1.9
- average lesion score ([1]; […] cream topical, day 10): 2.6 ± 1.7
- average lesion score ([1]; […] cream topical, day 11): 2.6 ± 1.7
- average lesion score ([1]; […] cream topical, day 12): 2.6 ± 1.7
- average lesion score ([1]; […] cream topical, day 13): 2.6 ± 1.7
- average lesion score ([1]; […] cream topical, day 14): 2.6 ± 1.7
- activity in vaginitis model, second experiment ([1]; cream topical): weak, but not statistically significant, activity
- Mean Day to Death ([1]; virus infected, AM-285 1% dietary): 6.0 ± 0.0
- effect on cytopathic effect (Adenovirus type 5): inhibited the cytopathic effect
- CC50 ([2]; Table 4): > 4000 µg/mL
- CC50 ([2]; Table 6): > 10000 µg/mL
- CC50 ([2]; Table 7): > 10000 µg/mL
- CC50 ([2]; Table 9A): > 4000 µg/mL
- visible cytotoxicity (MRC-5 cells): no visible signs of cytotoxicity
- CC50 [3]: > 4000 µg/mL
- TI50 (CD50 ÷ ED50) ([4]; CV-1 cells, Table 9B): ~ 54
- # Plaques ([4]; CV-1 cells, AM-285 156 μg/ml, virus control 70.25 ± 6.9): 28.5
- # Plaques ([4]; CV-1 cells, AM-285 312.5 μg/ml, virus control 70.25 ± 6.9): 12
- # Plaques ([4]; CV-1 cells, AM-285 625 μg/ml, virus control 70.25 ± 6.9): 3
- # Plaques ([4]; CV-1 cells, AM-285 1250 μg/ml, virus control 70.25 ± 6.9): 1
- # Plaques ([4]; CV-1 cells, AM-285 2500 μg/ml, virus control 70.25 ± 6.9): 0
- # Plaques ([4]; CV-1 cells, AM-285 5000 μg/ml, virus control 70.25 ± 6.9): 0
- # Plaques ([4]; CV-1 cells, AM-285 10000 μg/ml, virus control 70.25 ± 6.9): 0
- inhibition at 156 µg/mL [4, 10]: 59%
- inhibition at 312.5 µg/mL [4, 10]: 83%
- inhibition at 625 µg/mL [4, 10]: 96%
- inhibition at 1250 µg/mL [4, 10]: 98%
- inhibition at 2500 µg/mL [4, 10]: 100%
- inhibition at 5000 µg/mL [4, 10]: 100%
- inhibition at 10000 µg/mL [4, 10]: 100%
- EC50 ([4]; Human alphaherpesvirus 3, CV-1, read-out: ED50): < 156 µg/mL
- EC50 ([4]; Human alphaherpesvirus 3, CV-1, read-out: ED50, approximate value in parentheses): ~107 µg/mL (≈ 0.747 mM)
- inhibition at 62.5 µg/mL [4, 11]: 0%
- inhibition at 125 µg/mL [4, 11]: 0%
- inhibition at 260 µg/mL [4, 11]: 36%
- inhibition at 500 µg/mL [4, 11]: 42%
- inhibition at 1000 µg/mL [4, 11]: 71%
- inhibition at 2000 µg/mL [4, 11]: 91%
- inhibition at 4000 µg/mL [4, 11]: 100%
- EC50 ([4]; Human alphaherpesvirus 3, MRC5, read-out: ED50): 564 µg/mL (≈ 3.94 mM)
- TI50 (CD50 ÷ ED50) ([4]; MRC-5 cells, Table 9A): > 7.1
- # Plaques ([4]; MRC-5 cells, AM-285 62.5 μg/ml, virus control 32.7 ± 9.3): 26
- # Plaques ([4]; MRC-5 cells, AM-285 125 μg/ml, virus control 32.7 ± 9.3): 26
- # Plaques ([4]; MRC-5 cells, AM-285 260 μg/ml, virus control 32.7 ± 9.3): 21
- # Plaques ([4]; MRC-5 cells, AM-285 500 μg/ml, virus control 32.7 ± 9.3): 19
- # Plaques ([4]; MRC-5 cells, AM-285 1000 μg/ml, virus control 32.7 ± 9.3): 9.5
- # Plaques ([4]; MRC-5 cells, AM-285 2000 μg/ml, virus control 32.7 ± 9.3): 3
- # Plaques ([4]; MRC-5 cells, AM-285 4000 μg/ml, virus control 32.7 ± 9.3): 0
- Vmax/Km ratio relative to creatine (creatine kinase; forward reaction in vitro): approximately one-fifth
- initial rate of phosphorylation by creatine kinase, % of that of creatine (creatine kinase; in vitro, forward reaction): 31%
- Vmax, % of that of creatine (creatine kinase; measured at 1° C.): 90%
- Ki (creatine kinase; reverse reaction at 1° C., read-out: Ki, competitive inhibitor of P-creatine): 44 mM
- CC50 (in vitro [5]): > 4000 µg/mL and > 28 mM
- CC50 (in vitro [6]): > 10000 µg/mL
- CC50 (in vitro [7]): > 4000 µg/mL
- tolerance of dietary cyclocreatine [8]: without significant mortality
- cytotoxicity (DU 145 cells): some cytotoxicity
- tolerance of dietary cyclocreatine [9]: without gross adverse effects

Reference: US5321030A, “Creatine analogs having antiviral activity” (priority 1991, dated 1994)
